Here are results for one compound from paper PMC11951083, “Highly Specific Miniaturized Fluorescent Monoacylglycerol Lipase Probes Enable Translational Research” (Journal of the American Chemical Society, 2025).

The target in experiment [1] is T1, MAGL (Homo sapiens, UniProt Q99685).
T1 sequence (Q99685 1-303): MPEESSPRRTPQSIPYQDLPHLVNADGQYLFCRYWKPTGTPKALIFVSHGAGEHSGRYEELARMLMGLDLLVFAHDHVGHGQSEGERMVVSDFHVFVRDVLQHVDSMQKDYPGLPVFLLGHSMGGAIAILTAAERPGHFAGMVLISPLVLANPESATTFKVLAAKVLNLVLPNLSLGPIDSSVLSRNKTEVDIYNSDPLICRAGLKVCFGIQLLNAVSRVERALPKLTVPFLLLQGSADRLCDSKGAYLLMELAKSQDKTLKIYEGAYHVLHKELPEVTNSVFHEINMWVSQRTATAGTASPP
Kind of experiment: Competitive FP binding assay with probe 5 as tracer. The following applies: 5 (20 nM), hMAGL (50 nM), irreversible inhibitors time-dependent.

A further experiment relates to MAGL-Nluc fusion protein. Nature of the experiment: Competition nanoBRET assay in live HEK293 cells with probe 4a as tracer. It is filed as cell-based. The following applies: tracer 4a (100 nM), read-out: cellular IC50. As to the method: In vitro MAGL Inhibition Assay
Compounds were profiled for MAGL inhibitory activity by determining the enzymatic activity by following the hydrolysis of the natural substrate 2-arachidonoylglycerol (2-AG), resulting in arachidonic acid, which can be followed by mass spectrometry. The 2-AG assay was carried out in 384 well assay plates (PP, Greiner Cat# 784201) in a total volume of 20 µL. Compound dilutions were made in 100% DMSO (VWR Chemicals 23500.297) in a polypropylene plate in 3-fold dilution steps to give a final concentration range in the assay from 12.5 µM to 0.8 pM. […] The activity of the compounds was calculated based on the ratio of intensities [arachidonic acid / d8-arachidonic acid]. […]
A HEK293A stable cell line expressing NanoLuc_MAGL was established at Roche and assigned as HEK293A_NanoLuc_MAGL clone #43. […] The introduction of competing compounds results in a dose -dependent decrease in NanoBRET™ energy transfer, which allows quantification of the intracellular affinity of the target protein for the test compound.
HEK293A_NanoLuc_MAGL clone #43 cells were cultured in DMEM (Gibco 31966) with 10% FBS and 800 ug/ml G418. […] After 2 hours of incubation, Nanoluciferase substrates and extracellular inhibitors were added following the manufacturer's protocol (Promega, #N2520), and the NanoBRET signaling were quantified with the Paradigm (Molecular Devices).
(BRET reads energy transfer from a luciferase to a nearby fluorophore.)

Experiment [2] has as its target T1, MAGL. The arrangement: method as in earlier work. The following applies: Table S2, literature compounds; ref (1), (6)-(12) as indicated per compound; cited from earlier work.
In experiment [3] the target is T1, MAGL. Nature of the experiment: ABPP target occupancy in patient-derived PBMCs. It is filed as cell-based. Also noted: native, human patient-derived peripheral blood monocytes (PBMCs); endogenous in cells; host or cells: human PBMCs from buffy coats. As to the method:
minutes at RT. Subsequently, 0.5 µL MB064 (40x stock in DMSO) was added to the proteome sample, vortexed briefly, and incubated for 10 minutes at RT, after which 0.5 µL FP-Bodipy-FL (40x stock in DMSO) was added, vortexed briefly and incubated for 10 minutes at RT. The final volume was 20 - 20.5 µL (5 - 7.5% DMSO). The reaction was quenched by the addition of 7.5 µL of 4*Laemmli-buffer (final concentrations: 60 mM Tris (pH 6.8), 2% (w/v) SDS, 10% (v/v) glycerol, 1.25% (v/v) β-mercaptoethanol, 0.01% (v/v) bromophenol blue). 10 µL (14 µg protein) of the quenched reaction mixture was resolved on 10% acrylamide SDS-PAGE (180 V, 75 min). Fluorescence was measured using a Biorad ChemiDoc MP system (fluorescence channels Cy2, Cy3, Cy5). Gels were then stained using coomassie staining and imaged for protein loading control. Labeling of the respective proteins via MB064 and FP-BODIPY was visualized in two separate channels. […]
PBMCs were thawed, washed with 1 x PBS and equal amounts of cells were exposed to DMSO (D2650; Sigma-Aldrich) or MAGL inhibitor PF (PF-06795071) in DMSO for 30 min at room temperature with concentrations ranging from 1 nM to 1000 nM. […] Samples were then separated by SDS-PAGE and bands were detected ChemiDoc Imager (Bio-Rad Laboratories). […] Gels were imaged and protein bands were quantified using Image Lab software (Bio-Rad Laboratories).

In turn, `O=C(O[C@H](CO)C(F)(F)F)N1C[C@@H]2C(c3ccn(-c4ccc(F)cc4)n3)[C@@H]2C1` (some centres unmarked) [PF-06795071] gave a Ki at MAGL [1] of 0.0128 ± 0.0039 µM. Also, the concentration for half-maximal inhibition (IC50) (commonly the concentration at which inhibition is half-maximal) with MAGL-Nluc fusion protein is 1.6 µM; at MAGL [2], 0.003 µM. The figures for the “loss of MAGL activity” value on MAGL [3] (1 nM) and on MAGL [3] (10 nM) were 40% and 93%, respectively.
